Results on one compound are retold here after publication PMC7261188 (Nucleic Acids Research, 2020).

The target of the assay is SFTSV CBD (cap-binding domain of SFTSV L protein) (Severe fever with thrombocytopenia syndrome virus, UniProt I0DF35). The experiment in a line: biochemical.
SFTSV CBD (cap-binding domain of SFTSV L protein), sequence (I0DF35 1695-1810 limits assumed): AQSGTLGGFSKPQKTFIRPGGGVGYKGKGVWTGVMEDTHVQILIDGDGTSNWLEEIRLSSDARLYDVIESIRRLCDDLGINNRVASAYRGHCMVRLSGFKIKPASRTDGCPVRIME

Compound `C[n+]1cn([C@@H]2O[C@H](COP(=O)(O)OP(=O)(O)OP(=O)(O)O)[C@@H](O)[C@H]2O)c2nc(N)[nH]c(=O)c21` [m^7GTP] yielded an equilibrium dissociation constant (Kd) of about 138 µM.

As usually defined, the Kd is the free concentration of one partner at which half of the binding sites on the other are occupied at equilibrium, for simple one-to-one binding. High values mean a looser complex, low ones a tighter complex.
